Laboratory results published in PMC12040169 (PLOS Biology, 2025).

Assay: in vitro
Details: human, hela cells, % viability

Structure (SMILES) | viability at 28.5 h, 10 µM | viability at 28.5 h, 10 µM (bulk resorufin, single well)
CN(C)CCNC1CS(=O)(=O)CC1O (stereo not drawn) [CBK059025] | 84.8% | –
CN(C)CCN(C)S(=O)(=O)c1ccc(C(C)(C)C)cc1 [CBK059035T] | 94.7% | –
CN1CCC(N(C)S(=O)(=O)c2ccc(C(C)(C)C)cc2)C1 (stereo not drawn) [CBK059036T] | 98.5% | –
O=S(=O)(c1ccc(F)c(Cl)c1)n1ccc2c(N3CCNCC3)nccc21 [CBK059059C] | 90.7% | –
O=S(=O)(c1c(Cl)cccc1Cl)n1ccc2c(N3CCNCC3)nccc21 [CBK059060C] | 91.4% | –
O=S(=O)(c1ccc(F)cc1F)n1ccc2c(N3CCNCC3)nccc21 [CBK059061C] | 89.7% | –
COc1ccc(OC)c(S(=O)(=O)n2ccc3c(N4CCNCC4)nccc32)c1 [CBK059067C] | 101% | –
Cc1ccc([N+](=O)[O-])cc1S(=O)(=O)n1ccc2c(N3CCNCC3)nccc21 [CBK059068C] | 96.5% | –
Cc1cc(F)c(S(=O)(=O)NCCN2CCOCC2)cc1NC(=O)c1ccc(Br)o1 [CBK059091C] | 89.7% | –
O=C(O)CC1SC(Nc2cc(C(F)(F)F)cc(C(F)(F)F)c2)=NC1=O (stereo not drawn) [CBK059095] | 89.8% | –
O=C(O)CC1SC(Nc2ccccc2F)=NC1=O (stereo not drawn) [CBK059096] | 94.9% | –
CCNC(=S)N1CC[C@@H]2N(C)CC[C@]2(c2ccc(OC)c(OC)c2)CC1 [CBK059113T] | 88.5% | –
COc1ccc2c(c1)C(C)CC(C)(C)N2C(=O)CSc1nnc(-c2ccco2)n1C (stereo not drawn) [CBK059169] | 102% | –
C=CCn1c(SCC(=O)N2c3ccccc3C(C)(c3ccccc3)CC2(C)C)nnc1-c1ccncc1 (stereo not drawn) [CBK059171] | 83.3% | –
CCCn1c(SCC(=O)N2c3ccc(F)cc3CCC2C)nnc1-c1cccnc1 (stereo not drawn) [CBK059187] | 94% | –
CS(=O)(=O)Nc1ccc(N2CCNCC2)c2ccccc12 [CBK059355C] | 79.3% | –
O=C([C@@H]1Cc2c([nH]c3ccccc23)C2(CCN(Cc3ccccc3)C2)N1)N1CCOCC1 (stereo partly drawn) [CBK059363T] | 97.3% | –
Cc1cc(F)c(S(N)(=O)=O)cc1NC(=O)c1ccc(CN2CCOCC2)o1 [CBK059376C] | 97.7% | –
CCS(=O)(=O)Nc1cc(N2CCNCC2)c2occc2c1 [CBK059429C] | 118% | –
CCc1cccc(CC)c1NC(=O)CC1SC(NCc2ccc(C)cc2)=NC1=O (stereo not drawn) [CBK059431] | 118% | –
O=C(Cc1ccc(Cl)cc1)N1CCc2c([nH]c3ccccc23)C12CCN(Cc1ccc(F)cc1)C2 (stereo not drawn) [CBK059453] | 90.6% | –

Structure (SMILES) | viability at 28.5 h, 10 µM | viability at 28.5 h, 10 µM (bulk resorufin, single well)
CC(C)CC(=O)N1CCc2c([nH]c3ccccc23)C12CCN(Cc1ccccc1)C2 (stereo not drawn) [CBK059459] | 81.6% | –
CS(=O)(=O)N1CCc2c([nH]c3ccccc23)C12CCN(Cc1ccccc1)C2 (stereo not drawn) [CBK059460] | 102% | –
COc1cc(NC(=O)CC2SC(NC3CCCCC3)=NC2=O)c(OC)cc1Cl (stereo not drawn) [CBK059497] | 96.2% | –
Cc1ccc(NC(=O)CC2SC(NC3CCCCC3)=NC2=O)c(C)c1 (stereo not drawn) [CBK059500] | 87.9% | –
O=C(CC1SC(NC2CCCCC2)=NC1=O)Nc1cc(Cl)ccc1Cl (stereo not drawn) [CBK059501] | 91% | –
C[C@@H]1[C@H]2C[C@@H](C[C@H]1NC1=NC(=O)C(CC(=O)O)S1)C2(C)C (stereo partly drawn) [CBK059514] | 93.8% | –
COc1ccc(N(C)C(=O)c2ccc(Cn3nc(NC(=O)Cc4ccc5c(c4)OCO5)c4ccccc43)cc2)cc1 [CBK059530] | 103% | –
Cc1ccnc2c1C(=O)C1(CC2)CCN(C(=O)Nc2ccc(F)cc2F)CC1 [CBK059553T] | 91.3% | –
O=C(NC(c1ccc(Cl)cc1)c1cnccn1)C1CCN(C(=O)c2ccccc2)CC1 (stereo not drawn) [CBK059634] | 109% | –
COc1ccccc1C(NC(=O)C1CCN(C(=O)c2cccc(Cl)c2)CC1)c1ccccn1 (stereo not drawn) [CBK059637] | 90.3% | –
CC(C)OC(=O)N1CCC(C(=O)NC(c2ccccc2)c2ccc3ccccc3n2)CC1 (stereo not drawn) [CBK059642] | 106% | –
COc1cc(OC)nc(C(NC(=O)C2CCN(C(=O)c3ccccc3)CC2)c2ccccc2)n1 (stereo not drawn) [CBK059650] | 99.7% | –
COC(=O)N1CCC(C(=O)NC(c2ccccc2)c2nc(OC)cc(OC)n2)CC1 (stereo not drawn) [CBK059651] | 90.6% | –
CC(C)S(=O)(=O)N1CCC(C(=O)NC(c2ccccc2)c2ccc3ccccc3n2)CC1 (stereo not drawn) [CBK059676] | 94.1% | –
O=C(NC(c1ccc(Cl)cc1)c1cccnc1)C1CCN(C(=O)C2CC2)CC1 (stereo not drawn) [CBK059686] | 90.4% | –
C=CCOC(=O)N1CCC(C(=O)NC(c2ccccn2)c2ccccc2C)CC1 (stereo not drawn) [CBK059689] | 94% | –
CS(=O)(=O)N1CCC(C(=O)NC(c2ccc(F)cc2)c2ccccn2)CC1 (stereo not drawn) [CBK059696] | 94.9% | –
Cc1ccccc1C(NC(=O)C1CCN(S(=O)(=O)C(C)C)CC1)c1ccccn1 (stereo not drawn) [CBK059711] | 104% | –
Cc1ccccc1C(NC(=O)C1CCN(C(=O)c2ccccc2)CC1)c1ccccn1 (stereo not drawn) [CBK059720] | 94.5% | –
Cc1ccccc1C(NC(=O)C1CCN(C(=O)N(C)c2ccccc2)CC1)c1ccccn1 (stereo not drawn) [CBK059721] | 88.7% | –
COc1ccc(C(NC(=O)C2CCN(C(=O)OCc3ccccc3)CC2)c2ccccc2C)cn1 (stereo not drawn) [CBK059726] | 91.4% | –

Structure (SMILES) | viability at 28.5 h, 10 µM | viability at 28.5 h, 10 µM (bulk resorufin, single well)
COc1ccc(C(NC(=O)C2CCN(S(C)(=O)=O)CC2)c2ccccc2C)cn1 (stereo not drawn) [CBK059738] | 104% | –
O=C(NC(c1ccccc1)c1ccco1)C1CCN(C(=O)c2cccs2)CC1 (stereo not drawn) [CBK059854] | 82.4% | –
COC(=O)N1CCC(C(=O)NC(c2ccccc2)c2ncccc2C)CC1 (stereo not drawn) [CBK059885] | 92.6% | –
O=C(NC(c1ccc(F)cc1)c1cnccn1)C1CCN(C(=O)c2ccco2)CC1 (stereo not drawn) [CBK059956] | 94.3% | –
O=C(NC(c1ccc(F)cc1)c1cnccn1)C1CCN(S(=O)(=O)c2cccc(Cl)c2)CC1 (stereo not drawn) [CBK060013] | 85.1% | –
CC(C)(C)C(=O)N1CCC(C(=O)NC(c2ccc3c(c2)OCO3)c2ccccn2)CC1 (stereo not drawn) [CBK060074] | 110% | –
O=C(NC(c1ccc(Cl)cc1)c1ccsc1)C1CCN(S(=O)(=O)CC(F)(F)F)CC1 (stereo not drawn) [CBK060088] | 89.1% | –
O=C(NC(c1ccccc1)c1ccccn1)C1CCN(C(=O)Oc2ccccc2)CC1 (stereo not drawn) [CBK060105] | 96.9% | –
CC(=O)N1CCC(C(=O)N2CCC(C(=O)NC(c3ccccn3)c3cccs3)CC2)CC1 (stereo not drawn) [CBK060118] | 95% | –
Cn1cnc(S(=O)(=O)N2CCC(C(=O)NC(c3ccccn3)c3cccs3)CC2)c1 (stereo not drawn) [CBK060131] | 105% | –
Cc1ccc(C(=O)N2CCC(C(=O)NC(c3ccccc3)c3ccsc3)CC2)cc1 (stereo not drawn) [CBK060154] | 109% | –
COCCOC(=O)N1CCC(C(=O)NC(c2ccccc2)c2ccsc2)CC1 (stereo not drawn) [CBK060155] | 94.4% | –
COc1cc(OC)nc(C(NC(=O)C2CCN(C(=O)c3ccno3)CC2)c2ccc(Cl)cc2)n1 (stereo not drawn) [CBK060169] | 115% | –
CN(C(=O)C1CCN(C(=O)c2ccoc2)CC1)C(c1ccc(F)cc1)c1ccccn1 (stereo not drawn) [CBK060206] | 91.5% | –
Cc1ccccc1C(c1cnccn1)N(C)C(=O)C1CCN(C(=O)c2ccccc2)CC1 (stereo not drawn) [CBK060208] | 94.4% | –
COc1cccc(C(c2ccccn2)N(C)C(=O)C2CCN(S(=O)(=O)c3c(C)noc3C)CC2)c1 (stereo not drawn) [CBK060212] | 96.4% | –
Cc1ccc(S(=O)(=O)N2CCC(C(=O)NC(c3ccccc3C)c3ncccc3C)CC2)cc1 (stereo not drawn) [CBK060249] | 94.3% | –
COc1ccc(C(c2ccccn2)N(C)C(=O)C2CCN(S(=O)(=O)C(C)C)CC2)cc1 (stereo not drawn) [CBK060280] | 88.2% | –
COc1ccc(C(NC(=O)C2CCN(C(=O)NC(C)(C)C)CC2)c2ccccn2)cc1 (stereo not drawn) [CBK060298] | 112% | –
O=C(NC(c1ccccc1)c1cccnc1)C1CCN(C(=O)NCCc2cccs2)CC1 (stereo not drawn) [CBK060313] | 78.3% | –
O=C(NC(c1ccccc1)c1cccnc1)C1CCN(C(=O)NC2CCCCC2)CC1 (stereo not drawn) [CBK060378] | 84% | –

Structure (SMILES) | viability at 28.5 h, 10 µM | viability at 28.5 h, 10 µM (bulk resorufin, single well)
Cc1ccccc1C(NC(=O)C1CCN(C(=O)NCc2ccccc2)CC1)c1ncccc1C (stereo not drawn) [CBK060398] | 94.9% | –
O=C(NC(c1ccccc1)c1ccco1)C1CCN(C(=S)NCCc2ccccc2)CC1 (stereo not drawn) [CBK060412] | 94.4% | –
CN(C(=O)C1CCN(C(=S)NCc2ccccc2)CC1)C(c1ccccc1)c1ccccn1 (stereo not drawn) [CBK060476] | 91.7% | –
Cn1c(=O)n(CC(=O)N2CCC(C(=O)NC(c3ccccc3)c3ccccn3)CC2)c2ccccc21 (stereo not drawn) [CBK060494] | 96% | –
Cc1cccnc1C(c1ccccc1)N(C)C(=O)C1CCN(C(=O)OCc2ccccc2)CC1 (stereo not drawn) [CBK060522] | 93.9% | –
COc1ccccc1NC(=O)N1CCC2(CC1)OCc1cc(-c3ccccc3)ccc1O2 [CBK060599] | – | 109%
Cc1noc(C)c1NC(=O)N1CCC2(CC1)OCc1cc(F)ccc1O2 [CBK060721] | – | 97.8%
O=C(Nc1cccc(Cl)c1)N1CCC2(CC1)OCc1cc(F)ccc1O2 [CBK060722] | – | 87.5%
CCNC(=O)N1CCC2(CC1)OCc1cc(-c3ccc(Cl)cc3)ccc1O2 [CBK060737] | – | 90.1%
COc1ccc2c(c1)COC1(CCN(C(=O)NC3CCCCC3)CC1)O2 [CBK060755] | – | 111%
O=C(NCCc1cccs1)N1CCC2(CC1)OCc1cc(F)ccc1O2 [CBK060769] | – | 98.3%
CSc1cc(C)c2c(c1)COC1(CCN(C(=O)Nc3cccs3)CC1)O2 [CBK060795] | – | 90.6%
COc1ccc2c(c1)COC1(CCN(C(=O)Nc3cccs3)CC1)O2 [CBK060803] | – | 105%
CSc1cc(C)c2c(c1)COC1(CCN(C(=O)COCC(=O)O)CC1)O2 [CBK060839] | – | 94.1%
CSc1cc(C)c2c(c1)COC1(CCN(C(=O)c3ccccc3C(=O)O)CC1)O2 [CBK060843] | – | 94.1%
COc1ccc2c(c1)COC1(CCN(C(=O)CC(C)(C)CC(=O)O)CC1)O2 [CBK060855] | – | 90.3%
O=C(O)COCC(=O)N1CCC2(CC1)OCc1cc(F)ccc1O2 [CBK060859] | – | 106%
O=C(O)c1ccccc1C(=O)N1CCC2(CC1)OCc1cc(F)ccc1O2 [CBK060863] | – | 109%
